The text below walks through data of patent US5688654A, “GABA a receptor subtypes and methods for screening drug compounds using imidazoquinoxalines and pyrrolopyrimidines to bind to GABAa receptor subtypes” (Neurogen Corporation, priority 1994, dated 1997).

The structures appear in SMILES notation. pKi: −log10 of the molar value.

In assay [1] the target is GABAa receptor subtype. Put plainly: Drug screening assay: displacement of 3H-Compound 1 from rat cortical tissue (novel GABAa receptor subtype). The class given is binding. The note with it: Table I; 0.5 nM 3H-Compound 1, rat cortical tissue, 20 min at 4° C., buffer with 1 uM Ro 15-1788 and 10 uM muscimol; Ki by Cheng Prusoff. Here is the method: The methods for screening drug compounds of the invention using the novel GABAa receptor are illustrated by the following assays for GABAa receptor subtype activity.
Assays were carried out using the tissue preparation described in Thomas and Tallman (J. Bio. Chem. 156: 9838-9842, 1983, J. Neurosci 3: 433-440, 1983). Rat cortical tissue was dissected and homogenized in 25 volumes (w/v) of 0.05M Tris HCl buffer (pH 7.4 at 4° C.). The tissue homogenate was centrifuged in the cold (4°) at 20,000×g for 20'. The supernatant was decanted and the pellet was rehomogenized in the same volume of buffer and again centrifuged at 20,000×g. The supernatant was decanted and the pellet was frozen at -20° C. overnight. The pellet was then thawed and rehomogenized in 25 volume (original wt/vol) of buffer and the procedure was carried out twice. The pellet was finally resuspended in 50 volumes (w/vol of 0.05M Tris HCl buffer containing 1 uM Ro 15-1788. 1 uM sodium ascorbate and 10 uM muscimol (pH 7.4 at 4° C.).
Incubation mixtures contained 400 μl of tissue homogenate. 5μl of 100 nM ligand in above buffer [final ligand concentration was 0.5 nM ^3 H-Compound 1 (specific activity 67 Ci/mmol)], drug or blocker and buffer to a total volume of 1 ml. Incubations were carried for 20 min at 4° C. then were rapidly filtered through GFB filters to separate free and bound ligand. Filters were washed twice with fresh 0.05M Tris HCl buffer (pH 7.4 at 4° C.) and counted in a liquid scintillation counter. 10 μM Compound 3 was added to some tubes to determine nonspecific binding. Data were collected in triplicate determinations, averaged and % inhibition of total specific binding was calculated. Total Specific Binding=Total-Nonspecific. Typically the specific binding represented about 75 to 85% of total binding. In some cases, the amounts of unlabeled drugs was varied and total displacement curves of binding were carried out. Data were convened to a form suitable for the calculation of IC50 and Hill Coefficient (nH). These IC 50's were convened to Ki's using the Cheng Prusoff equation (Cheng and Prussoff, 1973, Biochem. Pharmacol. 22: 3099.).
(Loss of bound radioactivity is the signal in a displacement assay; it reports binding, not function.)

Assay [2] relates to benzodiazepine binding site. Conditions: Tallman et al., 1978; cited from earlier work.
The target in assay [3] is known GABAa receptors. The note with it: Table II, no method given; cited from earlier work.

The term pKi denotes −log10 of the Ki, conventionally taken in molar units.

In assay [1], `CCOc1ccc(-n2c(=O)c3c[nH]c4ccccc4n-3c2=O)cc1` [Compound 1, 2-(4-Ethoxyphenyl)imidazo[1,5.a]quinoxaline-1,3(2H,5H)-dione] showed a pKi of 9.30.
On to `CN1CCc2cc3c(cc2C1C1OC(=O)c2c1ccc1c2OCO1)OCO3` (single isomer, unassigned; (-)) [(-) bicuculline], for which the “effect on benzodiazepine binding / on its enhancement by GABA agonists (in words)” value in assay [2] was “much less active”.
Regarding `CC(C)(C)OC(=O)c1ncn2c1[C@@H]1CCCN1C(=O)c1c(Br)cccc1-2` [Bretazenil], the pKi in assay [1] is 4.82; in assay [3], 9.00.
Molecule `CCOc1ccc(-n2c(=O)c3cn(C)c4ccccc4n-3c2=O)cc1` [Compound 5, 2-(4-Ethoxyphenyl)-5-methyl-imidazo[1,5,a]quinoxaline-1,3(2H,5H)-dione] had a pKi in assay [1] of 8.22.
On the same count and under the same terms, as for `COc1cccc(-n2c(=O)c3c[nH]c4ccccc4n-3c2=O)c1` [Compound 6, 2-(3-Methoxyphenyl)imidazo[1,5.a]quinoxaline-1,3(2H,5. H)-dione], the figure is 9.26; as for `COc1ccc(F)c(-c2ncc3[nH]c4c(c3n2)CCCC4)c1` [Compound 2, 2-(2-Fluoro-5-methoxyphenyl)-6,7,g,9-tetrahydro-5H-indolo[3,2-d]-pyrimidine], 8.41.
Turning to `CN1C(=O)CN=C(c2ccccc2)c2cc(Cl)ccc21` [Diazepam], the pKi is 5.30 in assay [1] and 8.22 in assay [3].
Consider `Cc1ccc(-c2nc3ccc(C)cn3c2CC(=O)N(C)C)cc1` [Zolpidem], for which the negative logarithm of the Ki (pKi) was 5.66 in assay [1] and 7.70 in assay [3].
Consider `CCCOc1ccc(-n2c(=O)c3c[nH]c4ccccc4n-3c2=O)cc1` [Compound 3, 2-(4-Propyloxyphenyl)imidazo[1,5,a]quinoxaline-1,3(2H,5H)-dione], for which, in assay [1], the pKi was 9.05.
For `NCCCC(=O)O` [GABA, γ-Aminobutyric acid], the “effect on benzodiazepine binding / on its enhancement by GABA agonists (in words)” value in assay [2] is “enhance the binding of benzodiazepines”.
Molecule `Cc1nnc2n1-c1ccc(Cl)cc1C(c1ccccc1)=NC2` [Alprazelam] showed a pKi in assay [1] of 5.10.
Still for that read-out and setting: with `CCOc1ccc(-n2c(=O)c3c[nH]c4cc(C)ccc4n-3c2=O)cc1` [Compound 4, 2-(4-Ethoxyphenyl)-7-methyl-imidazo[1,5,a]quinoxaline-1,3(2H,5H)-dione] the figure was 9.30.
`CCOC(=O)c1ncn2c1CN(C)C(=O)c1cc(F)ccc1-2` [Flumazenil]: the pKi in assay [1] is 5.12; in assay [3], 9.00.
With `CN1CCc2cc3c(cc2C1C1OC(=O)c2c1ccc1c2OCO1)OCO3` (single isomer, unassigned; (+)) [(+) bicuculline], the “effect on benzodiazepine binding / on its enhancement by GABA agonists (in words)” value in assay [2] is “blocked”.
The molecule `COc1cccc(-c2ncc3[nH]c4c(c3n2)CCCC4)c1` [Compound 7, 2-(3-Methoxyphenyl)-6,7,8,9-tetrahydro-5H-indolo[3.2-d]-pyrimidine] gave a pKi in assay [1] of 7.30.
